Assay results published in patent publication US8293705B2, “HCV protease inhibitors and uses thereof” (Avila Therapeutics, Inc., priority 2007, dated 2012).
Read-outs that look alike come from different tables or passages of the source.

How the values were obtained:
[1] = target: T1, HCV NS3/4A 1b protease A156T (Hepatitis C virus genotype 1b, UniProt Q9WMX2, A1182T); experiment: HCV protease FRET assay (IC50_APP), Example 16; format: biochemical
T1 construct: 10× stocks of NS3/4A protease enzyme from Bioenza (Mountain View, Calif.); purchased Bioenza (Mountain View, Calif.)
Procedure: (§1) The following protocol was used to generate “apparent” IC50 (IC50 APP) values as depicted in Table 6, below. […] 5 μL of each enzyme were added to Corning (#3575) 384-well, black, microtiter plates (Corning, N.Y.) after spotting a 0.5 μL volume of 50% DMSO and serially diluted compounds prepared in 50% DMSO. Protease reactions were immediately started after enzyme addition with the addition of 45 μL of the FRET substrate and monitored for 60-90 minutes at λex485/λem520 in a Synergy^4 plate reader from BioTek (Winooski, Vt.). At the conclusion of each assay, progress curves from each well were examined for linear reaction kinetics and fit statistics (R^2, 95% confidence intervals, absolute sum of squares).
(§2) The compound numbers correspond to the compound numbers in Table 3. […] ;

[2] = target: T2, HCV NS3/4A 1b protease D168A (Hepatitis C virus genotype 1b, UniProt Q9WMX2, D1194A); experiment: HCV protease FRET assay (IC50_APP), Example 16; format: biochemical
T2 construct: 10× stocks of NS3/4A protease enzyme from Bioenza (Mountain View, Calif.); purchased Bioenza (Mountain View, Calif.)
Procedure: as §1, §2

[3] = target: T3, HCV NS3/4A 1b protease wild type (Hepatitis C virus genotype 1b, UniProt Q9WMX2); experiment: HCV protease FRET assay (IC50_APP), Example 16; format: biochemical
T3 construct: 10× stocks of NS3/4A protease enzyme from Bioenza (Mountain View, Calif.); purchased Bioenza (Mountain View, Calif.)
Procedure: as §1, §2

HCV NS3/4A wild type = target: T4, HCV NS3/4A wild type (Hepatitis C virus genotype 1b, UniProt Q9WMX2); experiment: Mass spectrometric analysis of covalent modification (MALDI-TOF); format: binding; conditions: 10× excess of test compound to protein; MALDI-TOF
T4 construct: HCV NS3/4A wild type (wt) was incubated for 1 hr at a 10× fold access of test compound to protein; purchased Bioenza, Calif
Procedure: Mass spectrometric analysis of HCV wild type or HCV variant C159S in the presence of test compound is performed. 100 pmols of HCV wild type (Bioenza, Calif.) is incubated with test compound for 1 hr and 3 hrs at 10-fold access of test compound to protein. 1 ul aliquots of the samples (total volume of 4.24 ul) are diluted with 10 ul of 0.1% TFA prior to micro C4 ZipTipping directly onto the MALDI target using Sinapinic acid as the desorption matrix (10 mg/mL in 0.1% TFA:Acetonitrile 50:50). Analyses are performed on a Shimadzu Biotech Axima TOF2 (Shimadzu Instruments) matrix-assisted-laser desorption/ionization Time-of-Flight (MALDI-TOF) mass spectrometer. The same procedure is carried out on 100 pmols of HCV C159S mutant of HCV protease for 3 hrs at 10-fold excess of test compound to protein.
As depicted in FIGS. 1 and 2, mass spectrometric analysis of HCV wild type in the presence of test compounds I-1 and I-25 was performed using the following protocol: HCV NS3/4A wild type (wt) was incubated for 1 hr at a 10× fold access of test compound to protein. 2 ul aliquots of the samples were diluted with 10 ul of 0.1% TFA prior to micro C4 ZipTipping directly onto the MALDI target using Sinapinic acid as the desorption matrix (10 mg/ml in 0.1% TFA:Acetonitrile 50:50). For intact protein mass measurement the instrument was set in linear mode using a pulsed extraction setting of 24,500 and apomyoglobin as the standard to calibrate the instrument.

[4] = target: T5, HCV NS3/4A 1b protease R155K (Hepatitis C virus genotype 1b, UniProt Q9WMX2, R1181K); experiment: HCV protease FRET assay (IC50_APP), Example 16; format: biochemical; conditions: reaction started immediately after enzyme addition, read-out: Inhibition (apparent IC50, IC50_APP), HCV R155K
T5 construct: 10× stocks of NS3/4A protease enzyme from Bioenza (Mountain View, Calif.); purchased Bioenza (Mountain View, Calif.)
Procedure: as §1, §2

[5] = system: HCV RNA replicon in cell line ET (luc-ubi-neo/ET), human Huh7 hepatoma; experiment: Replicon luciferase assay, Example 26; format: cell-based; conditions: Hepatitis C virus, Huh-7, assay of Example 26, 72 hr; for EC50: read-out: Inhibition, Replicon, EC50 value; for EC90: read-out: Inhibition, Replicon, EC90 value
Procedure: The compounds were assayed to evaluate the antiviral activity and cytotoxicity of compounds using replicon-derived luciferase activity. This assay used the cell line ET (luc-ubi-neo/ET), which is a human Huh7 hepatoma cell line that contains an HCV RNA replicon with a stable luciferase (Luc) reporter and cell culture-adaptive mutations. The ET cell line was grown in a 5% CO2 incubator at 37° C. in Dulbecco's modified essential media (DMEM) supplemented with 2 mM L-glutamine, nonessential amino acids, 100 U of penicillin/ml, 100 μg of streptomycin/mL, and 10% fetal bovine serum. G418 (Geneticin; Invitrogen) was added at a final concentration of 400 ug//mL.
All cell culture reagents were obtained from Invitrogen (Carlsbad). Cells were trypsinized (1% trypsin:EDTA) and plated out at 5×10^3 cells/well in white 96-well assay plates (Costar) dedicated to cell number (cytotoxicity) or antiviral activity assessments. Test compounds were added at six 3-fold concentrations each and the assay was run in DMEM, 5% FBS, 1% pen-strep, 1% glutamine, 1% non essential amino acid. Human interferon alpha-2b (PBL Biolabs, New Brunswick, N.J.) was included in each run as a positive control compound. Cells were processed 72 hr post test compound addition when the cells were still subconfluent. Antiviral activity was measured by analyzing replicon-derived luciferase activity using the Steady-Glo Luciferase Assay System (Promega, Madison, Wis.) according to manufacturer's instruction. The number of cells in each well was determined by Cell Titer Blue Assay (Promega). Compound profile was derived by calculating applicable EC50 (effective concentration inhibiting virus replication by 50%), EC90 (effective concentration inhibiting virus replication by 90%), IC50 (concentration decreasing cell viability by 50%) and SI50 (selective index: […]) values.

## C=C[C@@H]1C[C@]1(NC(=O)[C@@H]1C[C@@H](OC(=O)N2Cc3cccc(F)c3C2)CN1C(=O)CNC(=O)c1ccccc1OC(C)=O)C(=O)NS(=O)(=O)C1CC1 [Compound I-10, (3R,5S)-1-(2-(2-acetoxybenzamido)acetyl)-5-((1R,2S)-1-(cyclopropylsulfonylcarbamoyl)-2-vinylcyclopropylcarbamoyl)pyrrolidin-3-yl-4-fluoroisoindoline-2-carboxylate]
[1]
  IC50: 1000 to 10000 nM
[2]
  IC50: 1000 to 10000 nM
[3]
  IC50: 100 to 1000 nM
HCV NS3/4A wild type
  Covalent modification of HCV NS3/4A wild type: measurable covalent modification

## C=C[C@@H]1C[C@]1(NC(=O)[C@@H]1CC(OC(=O)N2Cc3cccc(F)c3C2)CN1C(=O)[C@H](CCC(=O)/C=C/C)NC(=O)OC(C)(C)C)C(=O)NS(=O)(=O)C1CC1 (some centres unmarked) [Compound I-26]
[1]
  IC50: < 10 nM
[2]
  IC50: < 10 nM
[3]
  IC50: < 10 nM
HCV NS3/4A wild type
  Covalent modification of HCV NS3/4A wild type: measurable covalent modification

## C=C[C@@H]1C[C@]1(NC(=O)[C@@H]1CC(OC(=O)N2Cc3cccc(F)c3C2)CN1C(=O)[C@@H](C)Nc1ccnc(Cl)n1)C(=O)NS(=O)(=O)C1CC1 (some centres unmarked) [Compound I-49]
[2]
  IC50: 1000 to 10000 nM
[3]
  IC50: 100 to 1000 nM
[4]
  IC50: 1000 to 10000 nM
[5]
  EC50: 1000 to 10000 nM
  EC90: 1000 to 10000 nM

## C=C[C@@H]1C[C@]1(NC(=O)[C@@H]1C[C@@H]2CN1C(=O)[C@H](CCC(=O)C=C(C)C)NC(=O)OCC(C)(C)CC/C=C/c1cccc3c1CN(C3)C(=O)O2)C(=O)NS(=O)(=O)C1CC1 [Compound I-55]
[1]
  IC50: < 10 nM
[2]
  IC50: 10 to 100 nM
[3]
  IC50: < 10 nM
[4]
  IC50: 10 to 100 nM
[5]
  EC50: < 10 nM

## C=CC(=O)N[C@@H](C(=O)N1C[C@H](OC(=O)N2Cc3cccc(F)c3C2)C[C@H]1C(=O)N[C@]1(C(=O)NS(=O)(=O)C2CC2)C[C@H]1C=C)C(C)C [Compound I-9, (3R,5S)-1-((R)-2-acrylamido-3-methylbutanoyl)-5-((1R,2S)-1-(cyclopropylsulfonylcarbamoyl)-2-vinylcyclopropylcarbamoyl)pyrrolidin-3-yl-4-fluoroisoindoline-2-carboxylate]
[1]
  IC50: < 10 nM
[2]
  IC50: 10 to 100 nM
[3]
  IC50: < 10 nM
HCV NS3/4A wild type
  Covalent modification of HCV NS3/4A wild type: measurable covalent modification

## CC(C)(C)OC(=O)N[C@H]1CN(S(=O)(=O)c2ccccc2[N+](=O)[O-])CCC/C=C\[C@@H]2C[C@@]2(C(=O)NS(=O)(=O)C2CC2)NC(=O)[C@@H]2CC(OC(=O)N3Cc4cccc(F)c4C3)CN2C1=O (some centres unmarked) [Compound I-45]
[2]
  IC50: < 10 nM
[3]
  IC50: < 10 nM
[4]
  IC50: < 10 nM
[5]
  EC50: 10 to 100 nM
  EC90: 100 to 1000 nM

## C=C[C@@H]1C[C@]1(NC(=O)[C@@H]1CC(OC(=O)N2Cc3cccc(F)c3C2)CN1C(=O)[C@H](CCC(=O)C#CC(C)(C)C)NC(=O)OC(C)(C)C)C(=O)NS(=O)(=O)C1CC1 (some centres unmarked) [Compound I-29]
[2]
  IC50: < 10 nM
[3]
  IC50: < 10 nM
[4]
  IC50: < 10 nM
[5]
  EC50: 10 to 100 nM

## C=CC(=O)N1CC(C(NC(C)=O)C(=O)N2CC(OC(=O)N3Cc4cccc(F)c4C3)C[C@H]2C(=O)N[C@]2(C(=O)NS(=O)(=O)C3CC3)C[C@H]2C=C)C1 (some centres unmarked) [Compound I-46]
[2]
  IC50: 10 to 100 nM
[3]
  IC50: < 10 nM
[4]
  IC50: < 10 nM
[5]
  EC50: 1000 to 10000 nM
  EC90: 1000 to 10000 nM

## CC(C)(C)OC(=O)N[C@H]1CCCN(S(=O)(=O)c2ccccc2[N+](=O)[O-])C/C=C\[C@@H]2C[C@@]2(C(=O)NS(=O)(=O)C2CC2)NC(=O)[C@@H]2CC(OC(=O)N3Cc4cccc(F)c4C3)CN2C1=O (some centres unmarked) [Compound I-54]
[2]; read-out: Inhibition (apparent IC50, IC50_APP), HCV D168A, FRET, reaction started immediately after enzyme addition
  IC50: 10 to 100 nM
[3]; read-out: Inhibition (apparent IC50, IC50_APP), WT, FRET, reaction started immediately after enzyme addition
  IC50: < 10 nM
[4]
  IC50: 10 to 100 nM
[5]
  EC50: 100 to 1000 nM
  EC90: > 10000 nM

## C=CC(=O)N[C@H](C)C(=O)N1C[C@H](OC(=O)N2Cc3cccc(F)c3C2)C[C@H]1C(=O)N[C@]1(C(=O)NS(=O)(=O)C2CC2)C[C@H]1C=C [Compound I-8, (3R,5S)-1-((R)-2-acrylamidopropanoyl)-5-((1R,2S)-1-(cyclopropylsulfonylcarbamoyl)-2-vinylcyclopropylcarbamoyl)pyrrolidin-3-yl-4-fluoroisoindoline-2-carboxylate]
[1]
  IC50: < 10 nM
[2]
  IC50: < 10 nM
[3]
  IC50: < 10 nM
HCV NS3/4A wild type
  Covalent modification of HCV NS3/4A wild type: measurable covalent modification

## C=CC(=O)N1CC(C(NC(=O)OC2CCCC2)C(=O)N2CC(OC(=O)N3Cc4cccc(F)c4C3)C[C@H]2C(=O)N[C@]2(C(=O)NS(=O)(=O)C3CC3)C[C@H]2C=C)C1 (some centres unmarked) [Compound I-51]
[2]
  IC50: 10 to 100 nM
[3]
  IC50: < 10 nM
[4]
  IC50: 10 to 100 nM
[5]
  EC50: 100 to 1000 nM
  EC90: 1000 to 10000 nM
